Format in all cases: in vivo
In test [1] the test system is ryegrass, Italian (Italian ryegrass, Lolium multiflorum). Put plainly: Test A preemergence. Conditions: Lolium multiflorum, pre-emergence, 240 h, preemergence, read-out: Plant response rating, Ryegrass, Italian. Put shortly: (§1)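 Preemergence directed soil spray on seeded pots, or postemergence application to plants 2–10 cm, one- to two-leaf. Solvent mixture non-phytotoxic, with surfactant. Scored ~10 d later, visually, 0–100 vs untreated.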

Test [2] relates to ragweed (common ragweed, Ambrosia elatior). The test can be described thus: Test A preemergence. Conditions: Ambrosia artemisiifolia, pre-emergence, 240 h, preemergence, read-out: Plant response rating, Ragweed. In short, it runs like this:
as §1

Test [3] concerns pigweed (Amaranthus retroflexus). Put plainly: Test A preemergence. Conditions: Amaranthus retroflexus, pre-emergence, 240 h, preemergence, read-out: Plant response rating, Pigweed.
Test [4] relates to barnyardgrass (Echinochloa crus-galli). The test can be described thus: Test A preemergence. The settings on record: Echinochloa crus-galli, pre-emergence, 240 h, preemergence, read-out: Plant response rating, Barnyardgrass. Put shortly: as §1
For test [5], the system named is Kochia (Kochia scoparia). Put plainly: Test A preemergence. The settings on record: Bassia scoparia, pre-emergence, 240 h, preemergence, read-out: Plant response rating, Kochia. Put shortly: as §1
For test [6], the system named is giant foxtail (Setaria faberii). Put plainly: Test A preemergence. The settings on record: Setaria faberi, pre-emergence, 240 h, preemergence, read-out: Plant response rating, Foxtail, Giant. In short, it runs like this:
as §1

The test system of test [7] is ryegrass, Italian (Italian ryegrass, Lolium multiflorum). Put plainly: Test A postemergence. The settings on record: Lolium multiflorum, post-emergence, 240 h, 125 g ai/ha, postemergence; visual injury after approximately 10 d; 0 to 100 scale (0 no effect, 100 complete control); read-out: Plant response rating, Ryegrass, Italian. In short, it runs like this:
as §1

The subject of test [8] is ragweed (common ragweed, Ambrosia elatior). Put plainly: Test A postemergence. Conditions: Ambrosia artemisiifolia, post-emergence, 240 h, 125 g ai/ha, postemergence; visual injury after approximately 10 d; 0 to 100 scale (0 no effect, 100 complete control); read-out: Plant response rating, Ragweed. In short, it runs like this: as §1
Test [9] deals with pigweed (Amaranthus retroflexus). The test can be described thus: Test A postemergence. The settings on record: Amaranthus retroflexus, post-emergence, 240 h, 125 g ai/ha, postemergence; visual injury after approximately 10 d; 0 to 100 scale (0 no effect, 100 complete control); read-out: Plant response rating, Pigweed. In short, it runs like this:
as §1

Test [10] relates to barnyardgrass (Echinochloa crus-galli). Put plainly: Test A postemergence. The settings on record: Echinochloa crus-galli, post-emergence, 240 h, 125 g ai/ha, postemergence; visual injury after approximately 10 d; 0 to 100 scale (0 no effect, 100 complete control); read-out: Plant response rating, Barnyardgrass. Put shortly:
as §1

Test [11] has as its system Kochia (Kochia scoparia). Put plainly: Test A postemergence. The settings on record: Bassia scoparia, post-emergence, 240 h, 125 g ai/ha, postemergence; visual injury after approximately 10 d; 0 to 100 scale (0 no effect, 100 complete control); read-out: Plant response rating, Kochia. In short, it runs like this: as §1
The subject of a further test is corn (Zea mays). The test can be described thus: Test A postemergence. Conditions: Zea mays, post-emergence, 240 h, 125 g ai/ha, postemergence; visual injury after approximately 10 d; 0 to 100 scale (0 no effect, 100 complete control). Put shortly:
as §1

Test [12] relates to wheat (Triticum aestivum). The test can be described thus: Test A postemergence. Conditions: Triticum aestivum, post-emergence, 240 h, 125 g ai/ha, postemergence; visual injury after approximately 10 d; 0 to 100 scale (0 no effect, 100 complete control); read-out: Plant response rating, Wheat. Put shortly:
as §1

The test system of test [13] is Galium (catchweed bedstraw, Galium aparine). The test can be described thus: Test A postemergence. Conditions: Galium, post-emergence, 240 h, 125 g ai/ha, postemergence; visual injury after approximately 10 d; 0 to 100 scale (0 no effect, 100 complete control); read-out: Plant response rating, Galium. Put shortly: as §1
Test [14] deals with giant foxtail (Setaria faberii). The test can be described thus: Test A postemergence. Conditions: Setaria faberi, post-emergence, 240 h, 125 g ai/ha, postemergence; visual injury after approximately 10 d; 0 to 100 scale (0 no effect, 100 complete control); read-out: Plant response rating, Foxtail, Giant. In short, it runs like this:
as §1

[15] abbreviates: 125 g ai/ha, visual rating after approx. 10 d, 0 to 100 scale where 0 is no effect and 100 is complete control.
The mark [16] stands for this setting: 500 g ai/ha, 0 to 100 scale, 0 = no effect, 100 = complete control.

Structures are written as SMILES.

Among the data in patent US12077503B2, “Substituted cyclic amides and their use as herbicides” (FMC CORPORATION, priority 2015, dated 2024) are pest or weed control, Corn plant response rating (crop injury, 0 = no effect, 100 = complete kill) and plant injury values, retold here.

For `CN1C[C@H](c2ccc(C(F)(F)F)cc2)[C@@H](C(=O)Nc2ccc(F)c(F)c2F)C1=O` [Compound 745], the pest or weed control at 125 g/ha in test [1] (setting [15]) was found to be 70%; in test [2] (setting [15]), 80%; in test [3] (setting [15]), 80%; in [4] (setting [15]), 90%; in the test with Kochia (Kochia scoparia) [5] (setting [15]), 90%; in test [6] (setting [15]), 90%. In addition, the pest or weed control at 125 g/ha in test [7] is 50%; in test [8] it was 40%; in test [9], 70%; in test [10], 90%; in the test on Kochia (Kochia scoparia) [11] it was 70%; in [13], 60%. Moreover, the pest or weed control at 125 g/ha in test [14] worked out at 90%. The pest or weed control at 500 g/ha in test [1] (setting [16]) was found to be 90%; in [2] (setting [16]), 80%; in test [3] (setting [16]), 90%; in test [4] (setting [16]) it was 90%; in the test on Kochia (Kochia scoparia) [5] (setting [16]) it was 90%; in test [6] (setting [16]), 90%. The Corn plant response rating (crop injury, 0 = no effect, 100 = complete kill) at 125 g/ha with corn (Zea mays) stood at 90%. The plant injury at 125 g/ha in test [12] was 60%.
